These results are taken from article PMC11977230, “Coevolving residues distant from the ligand binding site are involved in GAF domain function” (Communications Chemistry, 2025).

In assay [1] the target is T1, WT PDE5 GAFa domain biosensor (GFP^2-GAFa(I159-N316)-RLuc) (Homo sapiens, UniProt O76074).
T1 construct: plasmids expressing the GAFa domain-based (GFP^2-GAFa(I159-N316)-RLuc); made in house; host or cells: HEK293T cells, transfected; cleared lysate used, not purified
In words: BRET-based GAFa domain conformational biosensor, cGMP dose-response (WT). The assay is classed as biochemical. From the text: (§1) Having observed alterations in the structural dynamics in the GAFa domain of PDE5 upon L267A and F295A mutations using MD simulations, we then proceeded to determine the impact of these mutations experimentally. […] (Fig. 4A). Broadly, these changes include a close juxtaposition of the sheet β3 and helix α4 leading to a “closing” of the cGMP binding site, an “inward” movement of sheet β1 and β2 towards the cGMP binding site and an “outward” movement of the loop β2/β3 (Fig. 4A, left panel). Additionally, cGMP binding is associated with a close juxtapositioning of helices α2 and α5 at the N- and C-termini of the GAFa domain, likely associated with the transduction of the allosteric signal from the GAFa domain to the catalytic domain in PDE5 (Fig. 4A, right panel). We decided to take advantage of the latter to monitor cGMP-binding induced conformational change in the GAFa domain through an increase in the BRET efficiency of the GAFa domain biosensor that we have described previously[24] (Fig. 4B). BRET is a biophysical technique that involves resonance energy transfer between a bioluminescent donor and a fluorescent acceptor, the extent of which is dependent on the spectral overlap, distance, and relative orientation between the two reporters. […]
For orientation: BRET reads energy transfer from a luciferase to a nearby fluorophore.

In assay [2] the target is T2, L267A mutant PDE5 GAFa domain biosensor (Homo sapiens, UniProt O76074, L267A).
T2 construct: made in house; host or cells: HEK293T cells, transfected; cleared lysate used, not purified
Put plainly: BRET-based GAFa domain conformational biosensor, cGMP dose-response (L267A). It counts as biochemical. Particulars: 1 µM cGMP.
From the text: as §1

Assay [3] concerns the target T3, F295A mutant PDE5 GAFa domain biosensor (Homo sapiens, UniProt O76074, F295A).
T3 construct: made in house; host or cells: HEK293T cells, transfected; cleared lysate used, not purified
Put plainly: BRET-based GAFa domain conformational biosensor, cGMP dose-response (F295A). It counts as biochemical. Particulars: 1 µM cGMP.
From the text: as §1

The target of assay [4] is T4, WT full-length PDE5A2 biosensor (GFP^2-PDE5A2-RLuc) (Homo sapiens, UniProt O76074).
T4 construct: the GAFa domain (I159-N316) or the full-length PDE5A2, were flanked by the green fluorescent protein 2 (GFP^2); made in house; host or cells: HEK293T cells, transfected; cleared lysate used, not purified
In words: BRET-based full-length PDE5A2 conformational biosensor, cGMP dose-response (WT). The assay is classed as biochemical. From the text: (§2) Having elucidated the impact of the L267A and F295A mutations in the isolated GAFa domain, we aimed to investigate their effect on the cGMP-binding induced conformational change in the full-length PDE5 protein. For this, we incorporated the mutations in our previously described BRET-based, full-length PDE5A2 biosensor (Fig. 5A) that reports a conformational change upon cGMP binding to the GAFa, but not the catalytic, domain in the protein[25].
(§3) The design of the BRET^2-based GAFa and full-length PDE5 (A2 isoform) biosensors was described previously[24],[25]. […]
(§4) All assays were performed at 37 °C in 96-well, white, flat-bottom plates. […] Bioluminescence spectra of the WT or the mutant biosensors were acquired over wavelengths ranging between 385 and 665 nm utilizing a grating-based system with 15 nm integration step size, with each individual measurement acquired for 1 s using a Tecan SPARK® multimode microplate reader (Tecan, Switzerland). BRET was determined as a ratio of GFP^2 and RLuc emission, either in the absence or in the presence of the indicated concentrations of cGMP, following a 30-min incubation at 37 °C. Bioluminescence and BRET were measured following the addition of the RLuc substrates, either coelenterazine 400a or Prolume purple (NanoLight Technology, Prolume Ltd., USA). […]

Assay [5] deals with L267A mutant full-length PDE5A2 biosensor (Homo sapiens, UniProt O76074, L267A). In words: BRET-based full-length PDE5A2 conformational biosensor, cGMP dose-response (L267A). The assay is classed as biochemical.
From the text: as §2, §3, §4

The target in assay [6] is F295A mutant full-length PDE5A2 biosensor (Homo sapiens, UniProt O76074, F295A). Put plainly: BRET-based full-length PDE5A2 conformational biosensor, cGMP dose-response (F295A). The assay is classed as biochemical.
From the text: as §2, §3, §4

Assay [7] has as its system isolated PDE5 GAFa domain. The settings on record: cited from earlier work.
In assay [8] the test system is GAFb domain of PDE2A. The arrangement: method as in PMID 15210692. Particulars: cGMP-binding GAFb domain of PDE2A; cited from earlier work.
Setting [9] is: 30 min incubation, mean ± S.D., three experiments, read-out: EC50 of cGMP-induced conformational change (decrease in BRET).

As for `Nc1nc2c(ncn2[C@@H]2O[C@@H]3COP(=O)(O)O[C@H]3[C@H]2O)c(=O)[nH]1` [cGMP], the “change in BRET in the presence of cGMP” value in assay [1] (1 µM cGMP) is reported as “increase in BRET”; in assay [2], “neither the L267A nor the F295A mutant biosensors showed a discernible change in BRET”; in assay [3], “neither the L267A nor the F295A mutant biosensors showed a discernible change in BRET”. The EC50 in assay [1] (read-out: EC50 of cGMP-induced conformational change (increase in BRET), HEK293T cell lysate, 30 min, 37 °C, mean ± S.D., four experiments) was found to be 19 ± 13 nM; in assay [4] (setting [9]) it was 73 ± 20 nM; in assay [5] (setting [9]) it was 181 ± 30 nM; in assay [6] (setting [9]), 3400 ± 2100 nM. Also, the “maximum BRET change” value is listed as -26.60 ± 3.42% in assay [4] (cGMP dose-response), −17.43 ± 1.31% in assay [5] (cGMP dose-response) and −12.60 ± 2.37% in assay [6] (cGMP dose-response). The “affinity for cGMP” value in assay [7] (PDE5 GAFa domain) is “nanomolar affinity”. The “higher affinity for cGMP compared to cAMP” value in assay [7] (isolated PDE5 GAFa domain) was “thousand-fold”. In assay [8], the “fold higher affinity for cGMP” value is “about 20 fold”.

As usually defined, the EC50 is the concentration needed to bring the measured effect to its halfway point.
